We go through one compound from patent publication US20210317090A1, “AMINO ACID DEPLETION AGENTS AS ANTIPROLIFERATIVE AGENTS” (University of Central Florida Research Foundation, Inc., priority 2018, published 2021).

Assay [1] relates to L3.6pl cells. In words: Intracellular polyamine and Ant-44 levels (N-dansylation, HPLC) in L3.6pl cells. It counts as cell-based, human. The settings on record: for Intracellular Putrescine / Intracellular Spermidine / Intracellular Spermine / Intracellular Total Polyamines: 72 hr. The procedure:
One explanation for the enhanced potency was that compound 10 (1666.255) increased polyamine import and, as a result, may have increased intracellular Ant-44 levels. To test this hypothesis, L3.6pl cells were dosed with a fixed concentration of Ant-44 (2 μM) alone and in combination with increasing concentrations of compound 10 (1666.255) to explore how this combination therapy affected intracellular polyamine pools and Ant-44 import.
FIG. 7 is an example according to various embodiments, illustrating both single and combination therapies in L3.6pl cells with Ant-44 and compound 10 (1666.255) after 72 h incubation. Polyamine and Ant-44 levels (expressed as nmoles/mg protein) and relative % viability versus an untreated control were observed after 72 h incubation at 37° C. The untreated control was run in parallel and polyamine levels determined in duplicate and % cell viability in triplicate. Ant-44 was dosed at a fixed concentration of 2 μM and compound 10 (1666.255) at increasing concentrations. Cell viability tracked well with total intracellular polyamine levels (sum of putrescine, spermidine and spermine).
It was concluded that compound 10 was neither acting as a PTI nor as a polyamine import agonist. How then could it lead to intracellular polyamine depletion? […] To test this hypothesis, L3.6pl cells were dosed with increasing concentrations of compound 10 (1666.255) without Ant44. If compound 10 (1666.255) was acting on polyamine pools, one should see a reduction in total polyamine levels as well as decreased cell viability in a dose dependent manner upon increasing levels of 10. Therefore, the toxicity of compound 10 and intracellular polyamine levels after 72 h exposure to 10 were measured (FIG. 8).
FIG. 8 is an example according to various embodiments, illustrating intracellular polyamine levels (expressed as nmoles polyamine/mg protein) in L3.6pl cells dosed with increasing concentrations of compound 10 (1666.255) after cells were incubated for 72 h at 37° C. The untreated control was run in parallel and polyamine levels determined in duplicate via N-dansylation and HPLC. The data was averaged and reported as nmol polyamine (PA)/mg protein.
This example illustrates aspects according to various embodiments pertaining to a 72 h experiment with Compound 10 in L3.6pl cells. Ten milliliters of a cell suspension containing L3.6pl human pancreatic cancer cells (50,000 cells/mL) and aminoguanidine (1 mM) were placed in treated plastic Petri dishes (d=9 cm) and incubated overnight at 37° C. After 24 h, the cells were dosed with compound 10 at 2 μM, 5 μM, or 7 μM. (Note: Stock solutions of 10 at 2, 5, and 7 mM were dissolved in phosphate buffered saline (PBS) and were filtered through a 0.2 μm filter prior to use. The experiments were maintained with a total volume of 10.01 mL where 10 mL of the cell suspension was placed in a plastic dish and each compound or the equivalent PBS volume was added to make up the total volume 10.01 mL for each dish. For example, for the control experiment PBS (10 μL) was added to make up the total volume (10 mL+10 μL=10.01 mL). After 72 h incubation, the cells were collected first by pipetting off the supernatant containing floating dead cells from the culture dish as well as media and placing them into 15 mL tubes. The supernatant containing floating cells was centrifuged (4 min at 1,000 rpm). The cell-free supernatant (supernatant #1) was collected into a new 15 mL tube and quantified (˜8.6 mL) and was then stored frozen and was later quantified by LCMS to investigate the media composition of particular polyamine and amino acid analytes. The attached cells on the dish were washed with PBS (5 mL). The PBS wash was removed by suction and additional PBS (2 mL) was added and again suctioned off to provide twice-washed cells still adhered to the dish. Trypsin (2 mL) was then added to each dish and incubated (3-5 min) until all the cells were detached. Fresh media (8 mL) was added to quench the trypsin. […]

Assay [2] has as its system L3.6pl cells. The assay is described as follows: Rescue by exogenous native polyamines in L3.6pl cells. It counts as cell-based, human. The conditions noted are these: 72 h, polyamine 1 μM or 5 μM, compound 10 at toxic dose (5 μM or higher). On the procedure: The question remained as to whether exogenous polyamines could enter and ‘rescue’ the cells back to the growth rate of untreated control. A series of experiments were conducted to determine if cells treated with compound 10 could be rescued by exogenous polyamines. To test this hypothesis, L3.6pl cells were incubated for 72 h with an increasing dose of compound 10 and a dose of one of the native polyamines (putrescine, spermidine, or spermine either at a fixed dose of 1 μM or 5 μM).
FIG. 10A is an example according to various embodiments, illustrating the inability of native polyamine putrescine (Put at 1 μM and 5 μM) to rescue L3.6pl cells treated with compound 10 (e.g., from 2-15 μM). FIG. 10B is an example according to various embodiments, illustrating inability of native polyamine spermidine (Spd at 1 μM and 5 μM) to rescue L3.6pl cells treated with compound 10 (e.g., from 2-15 μM). FIG. 10C is an example according to various embodiments, illustrating inability of the native polyamine spermine (Spm at 1 μM and 5 μM) to rescue L3.6pl cells treated with compound 10 (2-15 μM). The L3.6pl cells were incubated with 250 μM aminoguanidine (AG) for 24 h prior to the addition of compound 10, followed by 72 h incubation at 37° C. […]

With `CC(C)CCN1CCN(C(CNCc2ccccc2)CC2CCCCC2)CC1CC(C)C.Cl.Cl.Cl` (centres unmarked) [Compound 10, Benzyl-{3-cyclohexyl-2-[3-isobutyl-4-(3-methyl-butyl)-piperazin-1-yl]-propyl}-amine trihydrochloride salt], in assay [1] (2 μM), the “Intracellular Putrescine” value is 6.2 ± 0.7 nmol polyamine/mg protein, the “Intracellular Spermidine” value came to 27.1 ± 2.4 nmol polyamine/mg protein, the “Intracellular Spermine” value was 16.1 ± 0.0 nmol polyamine/mg protein and the “Intracellular Total Polyamines” value was 49.5 ± 3.1 nmol polyamine/mg protein. Besides, in assay [1] (5 μM), the “Intracellular Putrescine” value stood at 6.0 ± 0.9 nmol polyamine/mg protein, the “Intracellular Spermidine” value came to 17.6 ± 1.8 nmol polyamine/mg protein, the “Intracellular Spermine” value is on record as 14.9 ± 1.1 nmol polyamine/mg protein and the “Intracellular Total Polyamines” value is recorded as 38.5 ± 3.4 nmol polyamine/mg protein. Moreover, in assay [1] (7 μM), the “Intracellular Putrescine” value is 5.9 ± 0.3 nmol polyamine/mg protein, the “Intracellular Spermidine” value was determined as 15.6 ± 0.1 nmol polyamine/mg protein, the “Intracellular Spermine” value is recorded as 12.7 ± 0.6 nmol polyamine/mg protein and the “Intracellular Total Polyamines” value was determined as 34.2 ± 0.9 nmol polyamine/mg protein. In assay [1] (Ant-44 2 μM with compound 10 at 1 μM, 72 h), the “intracellular level of Ant-44” value came to 2.08 nmol Ant44/mg protein. Also, in assay [2], the “rescue of treated cells by putrescine, spermidine or spermine” value is “none of the three native polyamines (at 1 μM or 5 μM) were able to rescue”.
